Test results published in patent publication US7355047B2, “Substituted quinolone carboxylic acids, their derivatives, site of action, and uses thereof” (The Regents of the University of California, priority 2002, dated 2008).

Columns and labels:
[1] = molecular target: GABAA receptor complex (GRC); test: [35S]TBPS binding assay, rat cortex; settings: 2 nM [35S]TBPS, rat cortex; for IC50: read-out: IC50 (inhibition of [35S]TBPS binding); for % Inhibition of 2 nM TBPS in Rat Cortex at 10 μM: 10 μM compound, plain numbers = inhibition
[2] = tested on: GABAA receptor complex (GRC); test: [35S]TBPS binding dissociation, mouse forebrain; settings: 2 nM [35S]TBPS, initiated by 10 μM compound 3, 10 μM mefenamic acid, FIG. 13
[3] = tested on: GABAA receptor complex (GRC); test: [35S]TBPS binding, rat cerebellum; settings: 2 nM [35S]TBPS, 30 μM furosemide, FIG. 14

Row | SMILES | IC50 [1] [nM] | % Inhibition of 2 nM TBPS in Rat Cortex at 10 μM [1] [%] | also measured
1 | CCn1cc(C(=O)O)c(=O)c2cc(NC3CCCc4ccccc43)c(Cl)cc21 (stereo not drawn) [drawing 15] | 2700 | 70 | –
2 | CCCNC(=O)c1cn(CC)c2cc(Cl)c(NC3CCCc4ccccc43)cc2c1=O (stereo not drawn) | 1500 | 86 | –
3 | CCCC(C)C1(CC)C(=O)NC(=O)NC1=O (stereo not drawn) [pentobarbital, reference compound] | – | – | dissociation of [35S]TBPS binding in absence or presence of pentobarbital ([1]; initiated by 10 μM compound 3, 30 μM pentobarbital, FIG. 10): accelerate the dissociation of [^35S]TBPS binding
4 | C[C@H](O)[C@H]1CC[C@H]2[C@@H]3CC[C@H]4C[C@H](O)CC[C@]4(C)[C@H]3CC[C@]12C [5α,20α-diol, 5α-pregnan-3α,20α-diol, reference compound] | – | – | interaction with 5α,20α-diol inhibition of [35S]TBPS binding (neurosteroid site) ([1]; 10 μM compound 3 or 100 nM 3α,5α-P, FIG. 8): antagonize the effect of 3α,5α-P
5 | Cc1cccc(Nc2ccccc2C(=O)O)c1C [mefenamic acid, reference compound] | – | – | dissociation of [35S]TBPS binding in absence or presence of mefenamic acid [2]: accelerate the dissociation of [^35S]TBPS binding
6 | NS(=O)(=O)c1cc(C(=O)O)c(NCc2ccco2)cc1Cl [furosemide, reference compound] | – | – | effect on [35S]TBPS binding in absence or presence of furosemide [3]: inability of furosemide to produce a dose-dependent rightward parallel shift
7 | CCOC(=O)c1cn(CC)c2cc(Cl)c(NC3CCCc4ccccc43)cc2c1=O (stereo not drawn) | 880 | – | –
8 | CCn1cc(C(=O)O)c(=O)c2cc(NC(C)CCc3ccccc3)c(Cl)cc21 (stereo not drawn) | 2000 | 84 | –
9 | CCn1cc(C(=O)O)c(=O)c2cc(F)c(N3CCNCC3)cc21 [norfloxacin, reference compound] | – | – | effect on [35S]TBPS binding in absence or presence of norfloxacin ([1]; 30 μM and 100 μM norfloxacin, FIG. 9): inability of norfloxacin to produce a dose-dependent rightward parallel shift
10 | CCn1cc(C(=O)O)c(=O)c2cc(NCC(C)c3ccccc3)c(Cl)cc21 (stereo not drawn) | 4000 | 65 | –
11 | CN1C(=O)CN=C(c2ccc(Cl)cc2)c2cc(Cl)ccc21 [4′-chlorodiazepam, reference compound] | – | – | effect on [35S]TBPS binding in absence or presence of Ro5-4864 (4′-chlorodiazepam) ([1]; 0.3, 1 and 30 μM Ro5-4864, FIG. 11): inability of 4′-chlorodiazepam to produce a dose-dependent rightward parallel shift
